Data on three molecules can be found in US20110263707A1, “MOSQUITO REPELLENT” (BIO & HNT, INC., priority 2007, published 2011).

Values joined by “and” are separate entries in the source; they are usually repeats but may differ in a detail not shown here. Equal entries are not always repeated.

For this experiment, the system named is Aedes aegypti. Put plainly: Examination of repellent activity using skin test (treated forearm in cage of mated female mosquitoes). In kind it is in vivo. To be noted: for Effective repellency duration (average ± standard deviation): protection time until arm bitten by two cumulative mosquitoes. The text has this:
In this embodiment, Aedes aegypti was used test mosquitoes. The Aedes aegypti was supplied from Korea Research Institute of Bioscience and Biotechnology and reared indoor from generation to generation. The larvae of the Aedes aegypti were reared in a plastic container of 22×14×7 cm containing distilled water with a one to one mixture of chicken feed and yeast. Mosquito pupae were transferred into a paper cup and then placed in a rearing cage to emerge as adults. Here, the rearing cage was constructed with metal net. Males and females of the adult mosquitoes at one to one ratio were put in a rearing cage for two or three days for mating. The female mosquitoes were then used for repellency tests. Eight percent (8%) sugar water was supplied for the adult mosquitoes. The following rearing conditions were maintained: light condition of 16 h:8 h (day:night), temperature of 27±2° C., and relative humidity of 80±10%. In order to examine effectiveness of the mosquito repellents of the prepared sample solutions, one (1) […] of a sample solution was uniformly applied, using a metal rod, on a forearm of a volunteer human test subject between a wrist and an elbow. Thereafter, the arm treated with the test solution was inserted in a bioassay cage constructed with Plexiglass of 50×50×50 cm containing approximately 100 mated female mosquitoes. The number of mosquitoes trying to bite was recorded for three minutes in every thirty minutes for up to 4 hours. The time required to get the arm bitten by two cumulative mosquitoes was regarded as effective repellency duration. A net window of 40×40 cm was present at each side and top of the Plexiglass bioassay cage to allow air ventilation. A 15×15 cm hole was prepared at the front side of the Plexiglass bioassay cage and a long net sleeve was attached to the hole so that the test arm could be put into the cage for repellency test. At the beginning of each repellency test, an arm treated with solvent only was placed in the bioassay cage containing mosquitoes, in order to examine blood feeding activity of the mated female test mosquitoes. This test with the bioassay cage was carried out only when the arm was bitten by at least two mosquitoes for initial three minutes. In Table 3 and Table 4, the repellent efficiency was calculated using the following Equation 1. [formula]

Setting [1] is: concentration 2% (0.05 mg/cm^3), 30 minutes.
Where [2] appears, read: concentration 2% (0.05 mg/cm^3), 60 minutes.
Where [3] appears, read: concentration 2% (0.05 mg/cm^3), 90 minutes.
Setting [4] is: concentration 2% (0.05 mg/cm^3), 120 minutes.
The mark [5] stands for this setting: concentration 2% (0.05 mg/cm^3), 150 minutes.
Setting [6] is: concentration 2% (0.05 mg/cm^3), 180 minutes.
Where [7] appears, read: concentration 2% (0.05 mg/cm^3), 210 minutes.
Setting [8] is: concentration 2% (0.05 mg/cm^3), 240 minutes.
Where [9] appears, read: concentration 2% in 91% isopropyl alcohol (0.05 mg/cm^3).
Setting [10] is: concentration 10% (0.25 mg/cm^3), 30 minutes.
[11] abbreviates: concentration 10% (0.25 mg/cm^3), 60 minutes.
Setting [12] is: concentration 10% (0.25 mg/cm^3), 90 minutes.
Where [13] appears, read: concentration 10% (0.25 mg/cm^3), 120 minutes.
Where [14] appears, read: concentration 10% (0.25 mg/cm^3), 150 minutes.
The mark [15] stands for this setting: concentration 10% (0.25 mg/cm^3), 180 minutes.
[16] abbreviates: concentration 10% (0.25 mg/cm^3), 210 minutes.
Where [17] appears, read: concentration 10% (0.25 mg/cm^3), 240 minutes.
Setting [18] is: concentration 10% in 91% isopropyl alcohol (0.25 mg/cm^3), maximum measurement time 240 minutes.

Turning to `CCN(CC)C(=O)c1cccc(C)c1` [DEET, N,N-diethyl-m-toluamide], the “Repellent efficiency (%) per time” value runs as follows: under setting [1], 100%; under setting [2], 0%; under setting [3], 0%; under setting [4], 0%; under setting [5], 0%; under setting [6], 0%. The “Repellent efficiency (%) per time” value under setting [7] amounted to 0%; the “Repellent efficiency (%) per time” value under setting [8] was determined as 0%; the “Repellent efficiency (%) per time” value under setting [10] was found to be 100%; the “Repellent efficiency (%) per time” value under setting [11] is recorded as 100%; the “Repellent efficiency (%) per time” value under setting [12] stood at 100%; the “Repellent efficiency (%) per time” value under setting [13] stood at 100%. The “Repellent efficiency (%) per time” value stood at 87.5% under setting [14], 81.3% under setting [15], 78.1% under setting [16] and 71.9% under setting [17]. Moreover, the “Effective repellency duration (average ± standard deviation)” value under setting [9] is 70 min and 70 ± 10.0 min; the “Effective repellency duration (average ± standard deviation)” value under setting [18] is 218 min and 218 ± 10.8 min.

As for `CC(C)=CCC/C(C)=C\C(=O)O` [Neric acid, (Z,E)-3,7-dimethyl-2,6-octadienoic acid], the “Repellent efficiency (%) per time” value under setting [1] stood at 100%; the “Repellent efficiency (%) per time” value under setting [2] was determined as 83.1%; the “Repellent efficiency (%) per time” value under setting [3] was found to be 70.4%; the “Repellent efficiency (%) per time” value under setting [4] was 52.1%; the “Repellent efficiency (%) per time” value under setting [5] is 39.4%; the “Repellent efficiency (%) per time” value under setting [6] is 26.8%. Besides, the “Repellent efficiency (%) per time” value under setting [7] was found to be 18.3%; the “Repellent efficiency (%) per time” value under setting [8] is 14.1%; the “Repellent efficiency (%) per time” value under setting [10] amounted to 100%; the “Repellent efficiency (%) per time” value under setting [11] is 100%; the “Repellent efficiency (%) per time” value under setting [12] is recorded as 100%; the “Repellent efficiency (%) per time” value under setting [13] amounted to 100%. Besides, the “Repellent efficiency (%) per time” value was found to be 100% under setting [14], 100% under setting [15], 100% under setting [16] and 95.3% under setting [17]. The “Effective repellency duration (average ± standard deviation)” value is, setting by setting: under setting [9], 106 ± 16.3 min; (concentration 2% in 91% isopropyl alcohol (0.05 mg/cm^3), listed as neric acid) 106 min; under setting [18], 240 ± 0 min; (concentration 10% in 91% isopropyl alcohol (0.25 mg/cm^3), maximum measurement time 240 minutes, listed as neric acid) 240 min.

In the case of `CCC(C)OC(=O)N1CCCCC1CCO` (centres unmarked) [Picadirin], the “Repellent efficiency (%) per time” value runs as follows: under setting [10], 85.0%; under setting [11], 85.0%; under setting [12], 85.0%; under setting [13], 80.0%; under setting [14], 75.0%; under setting [15], 72.5%. Moreover, the “Repellent efficiency (%) per time” value reads like this: under setting [16], 62.5%; under setting [17], 47.5%. The “Effective repellency duration (average ± standard deviation)” value under setting [18] is 158 min and 158 ± 27.5 min.
